Laboratory results as given in ChEMBL document CHEMBL1201862, “PubChem BioAssay data set” (2004).
The source made the active and inactive calls. No stated cut-off is given here; in the data, actives have a measured IC50 and inactives only a lower limit.

Target: Envelope glycoprotein gp160 (Human immunodeficiency virus 1, UniProt Q6QLK5)
Test: inhibitors of HIV fusion peptide binding, primary screen, biochemical, uHTS, fluorescence dequenching (AID 1986)

Chain of Envelope glycoprotein gp160 (Q6QLK5 whole entry, the tested form may be a part): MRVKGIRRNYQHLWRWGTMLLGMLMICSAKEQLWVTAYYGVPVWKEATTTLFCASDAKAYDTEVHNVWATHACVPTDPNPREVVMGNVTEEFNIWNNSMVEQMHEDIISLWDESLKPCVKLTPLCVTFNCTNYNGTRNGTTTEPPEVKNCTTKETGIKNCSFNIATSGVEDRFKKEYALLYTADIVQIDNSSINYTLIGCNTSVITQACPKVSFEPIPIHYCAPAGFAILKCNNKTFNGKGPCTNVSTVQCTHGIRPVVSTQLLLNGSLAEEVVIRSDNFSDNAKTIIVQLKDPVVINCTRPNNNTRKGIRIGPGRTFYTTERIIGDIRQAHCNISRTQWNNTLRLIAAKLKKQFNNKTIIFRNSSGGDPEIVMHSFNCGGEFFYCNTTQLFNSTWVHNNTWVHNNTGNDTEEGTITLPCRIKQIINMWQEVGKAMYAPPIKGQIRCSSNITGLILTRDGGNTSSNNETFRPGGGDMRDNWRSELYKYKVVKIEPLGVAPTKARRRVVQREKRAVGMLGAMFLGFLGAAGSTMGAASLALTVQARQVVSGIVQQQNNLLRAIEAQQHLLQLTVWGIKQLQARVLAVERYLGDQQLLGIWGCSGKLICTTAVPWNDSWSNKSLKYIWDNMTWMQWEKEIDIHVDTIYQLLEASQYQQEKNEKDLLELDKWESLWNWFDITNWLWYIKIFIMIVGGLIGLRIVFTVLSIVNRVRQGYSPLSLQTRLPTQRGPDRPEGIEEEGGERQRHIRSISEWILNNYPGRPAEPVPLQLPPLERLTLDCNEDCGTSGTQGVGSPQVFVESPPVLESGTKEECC

| Structure (SMILES) | IC50 |
| --- | --- |
| CCCCCOc1ccc(C2C(C(=O)c3ccc(C)o3)=C(O)C(=O)N2c2cc(C)on2)cc1 (configuration not stated) | 22.8 µM (active) |
| Cc1ccc(S(=O)(=O)Oc2ccc(/C=C3\C(=N)N4N=C(S(C)(=O)=O)SC4=NC3=O)cc2)cc1 | 16.2 µM (active) |
